These results are taken from PubChem BioAssay AID328 (DTP/NCI, 2004).

The test system of the assay is BDF1 mice, P388 leukemia ip, median survival T/C. The experiment in a line: NCI In Vivo Anticancer Drug Screen. Data for tumor model P388 Leukemia (intraperitoneal) in B6D2F1 (BDF1) mice. To be noted: endpoint: median survival time, higher = longer survival. Put shortly: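 Steps: implant the tumour, treat one group with compound and another with vehicle, record survival, then divide treated by control.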

The mark [1] stands for this setting: dose: 50.0 mg/kg/injection, schedule: Q01DX009 (ip), vehicle: saline with Tween-80.
[2] abbreviates: dose: 100.0 mg/kg/injection, schedule: Q01DX009 (ip), vehicle: saline with Tween-80.
[3] abbreviates: dose: 100.0 mg/kg/injection, schedule: Q04DX003 (ip), vehicle: saline with Tween-80.
The mark [4] stands for this setting: dose: 200.0 mg/kg/injection, schedule: Q01DX009 (ip), vehicle: saline with Tween-80.
[5] abbreviates: dose: 200.0 mg/kg/injection, schedule: Q04DX003 (ip), vehicle: saline with Tween-80.
Setting [6] is: dose: 400.0 mg/kg/injection, schedule: Q01DX009 (ip), vehicle: saline with Tween-80.
The mark [7] stands for this setting: dose: 100.0 mg/kg/injection, schedule: Q04DX003 (ip), vehicle: Klucel (hydroxypropylcellulose) (HPC).
Where [8] appears, read: dose: 200.0 mg/kg/injection, schedule: Q04DX003 (ip), vehicle: Klucel (hydroxypropylcellulose) (HPC).
Where [9] appears, read: dose: 400.0 mg/kg/injection, schedule: Q04DX003 (ip), vehicle: Klucel (hydroxypropylcellulose) (HPC).
Where [10] appears, read: dose: 12.5 mg/kg/injection, schedule: Q01DX009 (ip), vehicle: Klucel (hydroxypropylcellulose) (HPC).
The mark [11] stands for this setting: dose: 25.0 mg/kg/injection, schedule: Q01DX009 (ip), vehicle: Klucel (hydroxypropylcellulose) (HPC).
Setting [12] is: dose: 50.0 mg/kg/injection, schedule: Q01DX009 (ip), vehicle: Klucel (hydroxypropylcellulose) (HPC).
The mark [13] stands for this setting: dose: 100.0 mg/kg/injection, schedule: Q04DX003 (ip), vehicle: saline.
The mark [14] stands for this setting: dose: 100.0 mg/kg/injection, schedule: Q04DX003 (ip), vehicle: water.
[15] abbreviates: dose: 200.0 mg/kg/injection, schedule: Q04DX003 (ip), vehicle: water.

Structures are written as SMILES. Values joined by “and” are separate entries in the source; they are usually repeats but may differ in a detail not shown here. Equal entries are not always repeated. Inconclusive results and toxic doses are left out.

With `Cc1ccc(CN(CC(=O)O)S(C)(=O)=O)cc1`, the T/C by setting is: (dose: 100.0 mg/kg/injection, schedule: Q04DX003 (ip), vehicle: other) 106 % of control; (dose: 200.0 mg/kg/injection, schedule: Q04DX003 (ip), vehicle: other) 109 % of control; (dose: 400.0 mg/kg/injection, schedule: Q04DX003 (ip), vehicle: other) 94 % of control.
For `CCCCCCCCCCCCCCCCS(=O)(=O)NN`, the T/C reads like this: (dose: 12.5 mg/kg/injection, schedule: Q01DX009 (ip), vehicle: other) 91 % of control; (dose: 25.0 mg/kg/injection, schedule: Q01DX009 (ip), vehicle: other) 96 % of control; (dose: 50.0 mg/kg/injection, schedule: Q01DX009 (ip), vehicle: other) 102 % of control.
As to `CCOC(=O)/C=C/c1ccco1`, the T/C was 100 % of control under setting [1]; 104 % of control (dose: 50.0 mg/kg/injection, schedule: Q04DX003 (ip), vehicle: saline with Tween-80); 88 % of control under setting [2]; 109 % of control under setting [3]; 88 % of control under setting [4]; 109 % of control under setting [5].
Regarding `CCOC(=O)NC1=C(N2CC2)C(=O)C(NC(=O)OCC)=C(N2CC2)C1=O`, the T/C was 199 % of control and 211 % of control and 212 % of control (dose: 0.78 mg/kg/injection, schedule: Q01DX009 (ip), vehicle: saline); 235 % of control and 238 % of control and 212 % of control (dose: 1.56 mg/kg/injection, schedule: Q01DX009 (ip), vehicle: saline); 100 % of control (dose: 3.12 mg/kg/injection, schedule: Q01DX009 (ip), vehicle: saline).
For the compound `c1ccc(-c2cc(-c3ccccc3)on2)cc1`, the T/C was 95 % of control under setting [2], 109 % of control under setting [4] and 104 % of control under setting [6].
In the case of `O=C(Nc1ccccc1)Nc1ccc([N+](=O)[O-])cc1`, the T/C is 105 % of control under setting [7], 110 % of control under setting [8] and 105 % of control under setting [9].
For `O=C1COCC(=O)C1`, the T/C is, setting by setting: (dose: 100.0 mg/kg/injection, schedule: Q01DX001 (ip), vehicle: saline) 96 % of control; (dose: 200.0 mg/kg/injection, schedule: Q01DX001 (ip), vehicle: saline) 107 % of control; (dose: 400.0 mg/kg/injection, schedule: Q01DX001 (ip), vehicle: saline) 100 % of control.
As to `COc1cc2c(cc1OC)-c1cc3cc(OC)c(OC)cc3c(C)[n+]1CC2`, the T/C is 106 % of control under setting [10], 106 % of control under setting [11] and 113 % of control under setting [12].
Regarding `COc1ccc(C(C#N)N2CCCCC2)cc1` (stereo unspecified), the T/C reads like this: under setting [10], 115 % of control; under setting [11], 100 % of control; (dose: 25.0 mg/kg/injection, schedule: Q04DX003 (ip), vehicle: Klucel (hydroxypropylcellulose) (HPC)) 113 % of control; under setting [12], 100 % of control; (dose: 50.0 mg/kg/injection, schedule: Q04DX003 (ip), vehicle: Klucel (hydroxypropylcellulose) (HPC)) 100 % of control; under setting [7], 100 % of control and 104 % of control.
Regarding `CCC1CN2CCc3cc(OC)c(OC)cc3C2CC1C#N` (stereo unspecified), the T/C runs as follows: (dose: 12.5 mg/kg/injection, schedule: Q01DX009 (ip), vehicle: saline with Tween-80) 89 % of control; (dose: 25.0 mg/kg/injection, schedule: Q01DX009 (ip), vehicle: saline with Tween-80) 89 % of control; under setting [1], 86 % of control.
Take `O=C1CCC(=O)N1CO`: the T/C reads like this: (dose: 25.0 mg/kg/injection, schedule: Q04DX003 (ip), vehicle: saline) 109 % of control; (dose: 44.0 mg/kg/injection, schedule: Q04DX003 (ip), vehicle: saline) 95 % of control; (dose: 50.0 mg/kg/injection, schedule: Q04DX003 (ip), vehicle: saline) 104 % of control; (dose: 66.0 mg/kg/injection, schedule: Q04DX003 (ip), vehicle: saline) 109 % of control; under setting [13], 118 % of control; (dose: 300.0 mg/kg/injection, schedule: Q04DX003 (ip), vehicle: saline) 159 % of control.
Take `CCOC(=O)Cc1csc2nc(-c3ccccc3)nn12`: the T/C was 106 % of control under setting [1], 108 % of control under setting [2] and 115 % of control under setting [4].
As for `O=C(O)CNCc1ccc(Cl)cc1`, the T/C was 103 % of control (dose: 50.0 mg/kg/injection, schedule: Q04DX003 (ip), vehicle: water); 90 % of control under setting [14]; 94 % of control under setting [15].
For the compound `OC1OC(COC(c2ccccc2)(c2ccccc2)c2ccccc2)C(O)C(O)C1O` (stereo unspecified), the T/C runs as follows: (dose: 10.0 mg/kg/injection, schedule: Q01DX009 (ip), vehicle: saline) 123 % of control; (dose: 12.5 mg/kg/injection, schedule: Q01DX009 (ip), vehicle: saline) 88 % of control; (dose: 20.0 mg/kg/injection, schedule: Q01DX009 (ip), vehicle: saline) 108 % of control; (dose: 25.0 mg/kg/injection, schedule: Q01DX009 (ip), vehicle: saline) 104 % of control and 115 % of control; (dose: 40.0 mg/kg/injection, schedule: Q01DX009 (ip), vehicle: saline) 114 % of control; (dose: 50.0 mg/kg/injection, schedule: Q01DX009 (ip), vehicle: saline) 101 % of control and 123 % of control. Moreover, the T/C (dose: 80.0 mg/kg/injection, schedule: Q01DX009 (ip), vehicle: saline) is 107 % of control; the T/C (dose: 100.0 mg/kg/injection, schedule: Q01DX009 (ip), vehicle: saline) was 90 % of control and 104 % of control and 105 % of control; the T/C (dose: 100.0 mg/kg/injection, schedule: Q01DX009 (ip), vehicle: water) was 100 % of control; the T/C under setting [3] is 110 % of control; the T/C under setting [13] was 90 % of control; the T/C under setting [14] was 105 % of control. The T/C was 105 % of control (dose: 200.0 mg/kg/injection, schedule: Q01DX009 (ip), vehicle: water); 105 % of control under setting [5]; 95 % of control (dose: 200.0 mg/kg/injection, schedule: Q04DX003 (ip), vehicle: saline); 110 % of control under setting [15]; 105 % of control (dose: 400.0 mg/kg/injection, schedule: Q01DX009 (ip), vehicle: water); 110 % of control (dose: 400.0 mg/kg/injection, schedule: Q04DX003 (ip), vehicle: saline with Tween-80). Moreover, the T/C (dose: 400.0 mg/kg/injection, schedule: Q04DX003 (ip), vehicle: water) was 110 % of control.
Regarding `N#CC1(NC(Cc2ccccc2)c2ccccc2)CCCCCCCCCCC1` (stereo unspecified), the T/C by setting is: under setting [1], 92 % of control; under setting [2], 86 % of control; under setting [4], 104 % of control; under setting [6], 102 % of control.
As for `CN1C(=O)CN=C(c2ccc[nH]2)c2cc(Cl)ccc21` (tested in a mixture with another compound), the T/C runs as follows: under setting [12], 104 % of control; (dose: 100.0 mg/kg/injection, schedule: Q01DX009 (ip), vehicle: Klucel (hydroxypropylcellulose) (HPC)) 109 % of control; under setting [7], 100 % of control; (dose: 200.0 mg/kg/injection, schedule: Q01DX009 (ip), vehicle: Klucel (hydroxypropylcellulose) (HPC)) 100 % of control; under setting [8], 104 % of control; under setting [9], 90 % of control.
As for `O=C(CS)CS`, the T/C is 102 % of control (dose: 6.25 mg/kg/injection, schedule: Q01DX009 (ip), vehicle: water); 102 % of control (dose: 12.5 mg/kg/injection, schedule: Q01DX009 (ip), vehicle: water); 93 % of control (dose: 25.0 mg/kg/injection, schedule: Q01DX009 (ip), vehicle: water); 104 % of control (dose: 50.0 mg/kg/injection, schedule: Q01DX009 (ip), vehicle: water).
